From ChEMBL document CHEMBL1148726, “Allosteric inhibitors of hepatitis C polymerase: discovery of potent and orally bioavailable carbon-linked dihydropyrones” (J Med Chem, 2007)
Calls of active or inactive are those of the source. The rule behind the calls is not given here.

Assays:
[1] = Inhibition of HCV 1b NS5B delta21 RNA dependent RNA polymerase by enzymatic assay; parameters: species or system Hepacivirus hominis
[2] = Cytotoxic against Huh7 cells; type: cell-based, Huh-7; details: human
[3] = system: Hepatitis C virus; assay: Antiviral activity against Hepatitis C virus infected Huh7 cells; type: functional, organism-based, Hepacivirus hominis, Huh-7
[4] = system: Hepacivirus hominis; assay: (§1) Inhibition of HCV 1a NS5B delta21 RNA dependent RNA polymerase by enzymatic assay
[5] = system: Rattus norvegicus; assay: (§2) Volume of distribution in rat at 25 mg/kg, po or 5 mg/kg, iv; type: ADME, organism-based; details: in vivo
[6] = system: Rattus norvegicus; assay: (§3) Half life in rat at 25 mg/kg, po or 5 mg/kg, iv; type: ADME, organism-based; details: in vivo
[7] = (§4) Bioavailability in rat at 10 mg/kg, po; type: ADME, organism-based; details: in vivo
[8] = Ratio of EC50 for HCV in Huh7 cells to IC50 for HCV NS5 B delta 21 polymerase; type: functional, Hepacivirus hominis, Huh-7
[9] = Fraction absorption in rat at 10 mg/kg, po; type: ADME, organism-based; parameters: dose 10 mg/kg, route oral; details: in vivo
[10] = Permeability from apical to basolateral side of the Caco-2 cell membrane; type: ADME, cell-based; details: human
[11] = Total plasma clearance in rat at 10 mg/kg, po or 2 mg/kg, iv; type: ADME, organism-based
[12] = Volume of distribution in rat at 10 mg/kg, po or 2 mg/kg, iv; type: ADME, organism-based; details: in vivo, read-out: Vdss
[13] = Permeability from basolateral to apical side of the Caco-2 cell membrane; type: ADME, cell-based; details: human
[14] = Half life in rat at 10 mg/kg, po or 2 mg/kg, iv; type: ADME, organism-based; details: in vivo
[15] = Total plasma clearance in rat at 25 mg/kg, po or 5 mg/kg, iv; type: ADME, organism-based
[16] = as §2; type: ADME, organism-based; details: in vivo, read-out: Vdss
[17] = as §3; type: ADME, organism-based; details: in vivo
[18] = system: Rattus norvegicus; assay: as §4; type: ADME, organism-based; details: in vivo
[19] = as §1; parameters: species or system Hepacivirus hominis
[20] = Fraction absorption in rat at 25 mg/kg, po; type: ADME, organism-based; parameters: dose 25 mg/kg, route oral; details: in vivo
[21] = Bioavailability in rat at 25 mg/kg, po; type: ADME, organism-based; details: in vivo

Question: Which results are given for `Cc1cc(C)n2nc(CC3=C(O)CC(CCc4ccc(C(C)(C)C#N)c(Cl)c4)(C4CCCC4)OC3=O)nc2n1` (stereo not given)?
Answer: IC50 [1]: 2 nM; CC50 ([2]; Huh7 cells): > 32 µM

Question: With `Cc1cc(C)n2nc(CC3=C(O)CC(CCc4ccc(C(C)(C)C#N)c(F)c4)(C4CCCC4)OC3=O)nc2n1` (stereo in doubt; 22) as the molecule, how does the IC50 [1] read?
Answer: The IC50 was 3 nM.

Question: What about the EC50 ([3]; huh-7) of the same molecule?
Answer: Its EC50 is 30 nM.

Question: What about the CC50 ([2]; huh-7) of the same molecule?
Answer: Its CC50 is > 32 µM.

Question: Which IC50 [1] does the source give for `Cc1cc(C)n2nc(CC3=C(O)CC(CCc4ccc(S(C)(=O)=O)c(Cl)c4)(C4CCCC4)OC3=O)nc2n1` (stereo not given) here?
Answer: The IC50 was 60 nM.

Question: What about the EC50 ([3]; Hepatitis C virus, Huh-7) of the same molecule?
Answer: Its EC50 is 610 nM.

Question: What about the CC50 ([2]; Huh7 cells) of the same molecule?
Answer: Its CC50 is > 32 µM.

Question: Which Activity [4] does the source give for `Cc1cc(C)n2nc(CC3=C(O)CC(CCc4ccc(C(C)(C)C#N)c(F)c4)(C4CCCC4)OC3=O)nc2n1` (single isomer, unassigned; enantiomer 2) [listing 1 of 2 here] here?
Answer: Its Activity is “inactive”.

Question: Which results are given for `Cc1cc(C)n2nc(CC3=C(O)CC(CCc4ccc(C(C)(C)C#N)c(F)c4)(C4CCCC4)OC3=O)nc2n1` (single isomer, unassigned; enantiomer 2) [listing 2 of 2 here]?
Answer: IC50 [1]: 1 nM; EC50 ([3]; huh-7): 32 nM; Vdss [5]: 0.17 L/kg; t1/2 [6]: 28.2 min; bioavailability [7]: 37%

Question: Which IC50 [1] does the source give for `COc1ccc(CCC2(C3CCCC3)CC(O)=C(Cc3nc4nc(C)cc(C)n4n3)C(=O)O2)cc1C` (stereo not given) here?
Answer: The IC50 was 54 nM.

Question: What about the EC50 ([3]; Hepatitis C virus, Huh-7) of the same molecule?
Answer: Its EC50 is 1200 nM.

Question: What about the CC50 ([2]; Huh7 cells) of the same molecule?
Answer: Its CC50 is > 32 µM.

Question: What does the source list for `COc1ccc(CCC2(C3CCCC3)CC(O)=C(Cc3nc4nc(C)cc(C)n4n3)C(=O)O2)cc1Cl` (stereo not given)?
Answer: IC50 [1]: 20 nM; EC50 ([3]; Hepatitis C virus, Huh-7): 330 nM; Ratio [8]: 17; CC50 ([2]; Huh7 cells): > 32 µM; Fa [9]: 48%; bioavailability [7]: 42%; Papp A→B [10]: 10 ×10⁻⁶ cm/s; clearance [11]: 8.3 mL/min/kg; Vd [12]: 0.3 L/kg; Papp B→A [13]: 6.8 ×10⁻⁶ cm/s; half-life [14]: 30 min

Question: What does the source list for `Cc1cc(C)n2nc(CC3=C(O)CC(CCc4ccc(C(C)(C)C#N)c(F)c4)(C4CCCC4)OC3=O)nc2n1` (single isomer, unassigned; enantiomer 1)?
Answer: CC50 ([2]; huh-7): 320 µM; clearance [15]: 3.7 mL/min/kg; Vd [16]: 0.3 L/kg; half-life [17]: 52.8 min; F [18]: 31%; IC50 [19]: 70 nM

Question: Which results are given for `Cc1cc(C)n2nc(CC3=C(O)CC(CCc4ccc(C(C)(C)NS(C)(=O)=O)c(F)c4)(C4CCCC4)OC3=O)nc2n1` (stereo not given)?
Answer: IC50 [1]: 17 nM; EC50 ([3]; Hepatitis C virus, Huh-7): 110 nM; CC50 ([2]; Huh7 cells): > 32 µM

Question: With `CCOc1ccc(CCC2(C3CCCC3)CC(O)=C(Cc3nc4nc(C)cc(C)n4n3)C(=O)O2)cc1Cl` (stereo not given) as the molecule, how does the IC50 [1] read?
Answer: The IC50 was 4 nM.

Question: What about the EC50 ([3]; Hepatitis C virus, Huh-7) of the same molecule?
Answer: The EC50 was 320 nM.

Question: What about the CC50 ([2]; Huh7 cells) of the same molecule?
Answer: Its CC50 is > 32 µM.

Question: Which IC50 [1] does the source give for `Cc1cc(SC2=C(O)OC(CCc3ccc(O)cc3)(C3CCCC3)CC2=O)c(C(C)(C)C)cc1N` (stereo not given) here?
Answer: Its IC50 is 930 nM.

Question: With `COc1ccc(CCC2(C3CCCC3)CC(O)=C(Sc3nc4nc(C)cc(C)n4n3)C(=O)O2)cc1Cl` (stereo not given) as the molecule, how does the IC50 [1] read?
Answer: The IC50 was 36 nM.

Question: What about the EC50 ([3]; Hepatitis C virus, Huh-7) of the same molecule?
Answer: Its EC50 is 3250 nM.

Question: And the Ratio [8]?
Answer: The Ratio was 90.

Question: And the CC50 ([2]; Huh7 cells)?
Answer: The CC50 was > 100 µM.

Question: What about the clearance [15] of the same molecule?
Answer: The clearance was 14.8 mL/min/kg.

Question: And the Vd [16]?
Answer: The Vd was 2 L/kg.

Question: What about the half-life [17] of the same molecule?
Answer: The half-life was 90 min.

Question: What about the Fa [20] of the same molecule?
Answer: The Fa was 2.5%.

Question: What about the bioavailability [21] of the same molecule?
Answer: The bioavailability was 2%.

Question: And the Papp A→B [10]?
Answer: The Papp A→B was 3 ×10⁻⁶ cm/s.

Question: And the Papp B→A [13]?
Answer: The Papp B→A was 2.3 ×10⁻⁶ cm/s.

Question: Which results are given for `COc1ccc(CCC2(C3CCCC3)CC(O)=C(Cc3nc4nc(C)cc(C)n4n3)C(=O)O2)cc1F` (stereo not given)?
Answer: IC50 [1]: 15 nM; EC50 ([3]; Hepatitis C virus, Huh-7): 400 nM; CC50 ([2]; Huh7 cells): > 32 µM
